The subject of assay [1] is Human fibroblasts. As to the kind of experiment: mmRNA (OSKMN) reprogramming of fibroblasts to naïve-like iPSC colonies in microfluidics. It is filed as cell-based. Here is the method: Microfluidic channels were coated with 25 μg/ml fibronectin (Sigma Aldrich) for 30 min at room temperature. Somatic cells were seeded on day −1 of reprogramming at 25 cells/mm^2 for feeder-free reprogramming in DMEM/10% FBS. Such seeding density allowed robust proliferation and survival of somatic cells during reprogramming. On day 0, 2 hours before the first mmRNA transfection, the medium was changed to PRM, a medium optimized from mRNA transfection and previously used for derivation of primed PSCs (StemMACS ReproBREW XF, Miltenyi biotec). When indicated, 1 μM CH, 1 μM CH and 5 μM Ri were added to PRM. Transfection period is of 9 h. Cells were transfected daily at 9 am, and fresh PRM was given daily at 6 pm. On day 6, medium was changed with a naïve supporting medium according to table 1 and the same regime of transfection and fresh medium change was maintained until day 12. From day 0 to 12, media were supplemented with 200 ng/mL^−1 B18R (eBioscience). Transfections using a OSKMN+nGFP mmRNA mix (POU5F1, SOX2, KLF4, c-MYC, NANOG, nuclear GFP) were started on day 0 and daily repeated for 12 d. […]
Freshly-derived colonies were then cultured for 3 days without mmRNAs (day 15) to allow their complete clearance, and analyzed in situ for naïve or primed associated markers. […] Success rate, measured as the percentage of microfluidic channels containing naïve-like colonies, was evaluated (FIG. 3c). […]

In assay [2] the test system is primed iPS cells. Nature of the assay: Expansion of mixed primed- and naïve-like colonies generated in CCC with FGF receptor inhibitor. It is filed as cell-based, human. The note with it: expanded with inhibitor. How it is done: Side-by-side experiments comparing μF and CCC were performed. Generation of niPSCs in μF was robust (100% of channels contained colonies, with an efficiency of 3.7%+1.0 and 3.1%+0.4 from BJ and HFF-1, respectively, FIG. 9a). Conversely, in CCC only 25% of wells contained naïve-like colonies, with efficiency of 0.2% and 0.04%.

With `Cc1c[nH]c(-c2cnc(NCCNc3ccc(C#N)cn3)nc2-c2ccc(Cl)cc2Cl)n1` [CH, CHIR99021], the “Formed naïve-like colonies, inhibitor added to PRM during the first 6 days” value in assay [1] (PRM + 1 μM CHIR99021 days 0-6, then 2LiGo+KSR, compared with other inhibitor combinations (FIG. 3b)) is reported as “Best results in term of formed colonies”.

As for `CCN(CC)CCCCNc1ncc2cc(-c3cc(OC)cc(OC)c3)c(NC(=O)NC(C)(C)C)nc2n1` [PD173074], in assay [2], the “Effect on primed iPS cells in mixed primed/naïve culture” value is listed as “primed iPS cells were eliminated”.

With `C[C@@H](N)[C@H]1CC[C@H](C(=O)Nc2ccncc2)CC1` [ROCK inhibitor, Y27632], the “Effect on colony formation efficiency” value in assay [1] (added to reprogramming in 2iLGo+KSR, OSKMN mmRNA, microfluidics (FIG. 3c-e)) is “increased colony formation efficiency”.

(Values after US20240247235A1, “niPSCs DERIVED FROM SOMATIC CELLS” (UNIVERSITA' DEGLI STUDI DI PADOVA, priority 2018, published 2024).)
